Source: patent publication US20250367160A1, “USE OF GUAIJAVERIN IN PREPARATION OF EYE PROTECTION PRODUCT” (Innovation Center of Yangtze River Delta, ZJU, priority 2024, published 2025)

How the values were obtained:
[1] = system: IL-6; experiment: Mouse retinal optical damage model, plasma IL-6 level; assay type: in vivo, BALB/c mice; conditions: gavage once a day 10 days, vs model group, FIG. 8
Procedure: (§1) A self-made light box with a length of 108 cm, a width of 50 cm, and a height of 72 cm was used, and the light intensity was measured by a light meter to be 8,500-10,000 Lux. After eye examination, 60 mice with normal eyeballs were selected and randomly divided into a control group, a model group, a lutein group (100 mg/kg), a guaijaverin low-dose group (50 mg/kg), and a guaijaverin high-dose group (100 mg/kg), with 12 mice in each group. Lutein and guaijaverin were suspended in 5% sodium carboxymethylcellulose (CMC-Na) solution and administered by gavage once a day. The mice in the control and model groups were administered by gavage with an equal volume of 5% CMC-Na for 10 consecutive days. 10 days later, the mice in the model group, lutein group, guaijaverin low-dose group, and guaijaverin high-dose group were kept in the dark for 36 h, atropine eye gel was applied to both eyes of the mice to induce pupil dilation, and the mice were placed in the self-made lighting device of 8,000-10,000 Lux (the control group was raised in a normal environment) and given continuous light for 24 h. […]
The mouse blood was collected in an anticoagulant tube and centrifuged at 3,000 rpm for 10 min at 4° C. to collect the upper plasma. The IL-6 content was determined according to the method provided by the kit manufacturer.

[2] = system: human primary retinal Müller cells; experiment: Optical stress (strong white light) model of human primary retinal Müller cells, AlamarBlue cell viability; assay type: cell-based; conditions: pre-incubation 24 h, 32k Lux strong light 4 h
Procedure: The human primary Müller cells in a logarithmic growth phase were inoculated at a density of 5,000 cells/well in a 96-well plate and cultured in a 37° C., 5% CO2 incubator for 24 h. The medium was removed by aspirating, and 6 replicate wells were set up for guaijaverin groups. 100 μL of the guaijaverin solution dissolved in DMSO solvent in advance was further diluted in DMEM and added into each well, at final concentrations of 10 μM and 30 μM, respectively. The control group was added with 100 μL of DMEM solution. A laboratory-made strong light irradiation system was used to model optical stress on human retinal primary Müller cells cultured in vitro. A strong light irradiation group was irradiated with 32k Lux of strong light for 4 h, while a weak light irradiation group was irradiated with 5k Lux of weak light for 4 h. Then, the cell viability was detected using the AlamarBlue kit.
After the cells were stressed by light, the AlamarBlue kit was used to detect cell viability. The cell culture supernatant was discarded, and the cells were washed twice with 100 μL of PBS. 100 μL of AlamarBlue reagent diluted 1:10 with DMEM solution was added, and the cells were incubated in a 37° C., 5% CO2 incubator for 4 h. The fluorescence of each well was read using a microplate reader at an excitation wavelength of 544 nm and an emission wavelength of 590 nm. 2.

[3] = system: T-AOC; experiment: Mouse retinal optical damage model, plasma total antioxidant capacity (T-AOC); assay type: in vivo, BALB/c mice; conditions: gavage once a day 10 days, vs model group, FIG. 7
Procedure: as §1
The mouse blood was collected in an anticoagulant tube and centrifuged at 3,000 rpm for 10 min at 4° C. to collect the upper plasma. The T-AOC content was determined according to the method provided by the kit manufacturer.

[4] = system: mouse retinal apoptotic cells; experiment: Mouse retinal optical damage model, TUNEL staining of retinal apoptotic cells; assay type: in vivo, BALB/c mice; conditions: for retinal cell apoptosis caused by light (TUNEL): gavage once a day 10 days, vs model group, FIG. 6
Procedure: A self-made light box with a length of 108 cm, a width of 50 cm, and a height of 72 cm was used, and the light intensity was measured by a light meter to be 8,500-10,000 Lux. After eye examination, 60 mice with normal eyeballs were selected and randomly divided into a control group, a model group, a lutein group (100 mg/kg), a guaijaverin low-dose group (50 mg/kg), and a guaijaverin high-dose group (100 mg/kg), with 12 mice in each group. Lutein and guaijaverin were suspended in 5% sodium carboxymethylcellulose (CMC-Na) solution and administered by gavage once a day. The mice in the control and model groups were administered by gavage with an equal volume of 5% CMC-Na for 10 consecutive days. 10 days later, the mice in the model group, lutein group, guaijaverin low-dose group, and guaijaverin high-dose group were kept in the dark for 36 h, atropine eye gel was applied to both eyes of the mice to induce pupil dilation, and the mice were placed in the self-made lighting device of 8,000-10,000 Lux (the control group was raised in a normal environment) and given continuous light for 24 h. After the light exposure, the mice in each group had their eyeballs removed to draw blood and eyeball tissue collected for subsequent experimental tests.
Eyeball tissues of 6 mice were collected from each group for Hematoxylin-eosin staining (H&E) and TUNEL fluorescence staining of apoptotic cells, and the pathological changes of mouse eyeball tissues were observed using an optical microscope (completed by Wuhan Servicebio Biotechnology Co., Ltd.).
a) Dewaxing the paraffin sections to water: the sections were sequentially placed into environmental-friendly dewaxing solution I for 10 min, environmental-friendly dewaxing solution II for 10 min, environmental-friendly dewaxing solution III for 10 min, anhydrous ethanol I for 5 min, anhydrous ethanol II for 5 min, anhydrous ethanol III for 5 min and washed with distilled water.
b) Proteinase K repair: after the sections were slightly dried, a tissue pen was used to draw a circle around the tissue (to prevent the liquid from flowing away), a proteinase K working solution was added in the circle to cover the tissue, and incubated in a 37° C. incubator for 20 min. The slides were placed in PBS (PH=7.4) and washed 3 times on a decolorizing shaker, each time for 5 min. (Preparation method of proteinase K working solution, stock solution:PBS=1:9). […]
g) Sealing: the slides were placed in PBS (PH7.4) and washed on a decolorizing shaker for 3 times, 5 min each time. The sections were slightly spin-dried and mounted with anti-fluorescence fading mounting medium. […]

O=c1c(O[C@@H]2OC[C@H](O)[C@H](O)[C@H]2O)c(-c2ccc(O)c(O)c2)oc2cc(O)cc(O)c12 [Guaijaverin, guaijaverin]
plasma level of IL-6 ([1]; high-dose 100 mg/kg): significantly reduce the level of IL-6
plasma level of IL-6 ([1]; low-dose 50 mg/kg): significantly reduce the level of IL-6
viability of Müller cells after strong light irradiation ([2]; 10 μM, FIG. 1): significantly restored
viability of Müller cells after strong light irradiation ([2]; 30 μM, FIG. 2): restored to the level under weak light irradiation conditions
plasma T-AOC level ([3]; high-dose 100 mg/kg): significantly increase the T-AOC level
plasma T-AOC level ([3]; low-dose 50 mg/kg): significantly increase the T-AOC level
protective effect on retinal cell apoptosis compared with lutein (TUNEL) ([4]; high-dose 100 mg/kg vs lutein 100 mg/kg): better protective effect than lutein
retinal cell apoptosis caused by light (TUNEL) ([4]; high-dose 100 mg/kg): effectively improve retinal cell apoptosis caused by light
protective effect on retinal cell apoptosis compared with lutein (TUNEL) ([4]; low-dose 50 mg/kg vs lutein 100 mg/kg): comparable to that of the positive control lutein
retinal cell apoptosis caused by light (TUNEL) ([4]; low-dose 50 mg/kg): effectively improve retinal cell apoptosis caused by light
